The test system of this assay is PC-3 cells. The experiment in a line: PC-3 Oxygen Rate Consumption (OCR) Assay. The settings on record: Homo sapiens, 0.05 h, medium with 2% FBS, OCR at 3-min post-injection normalized to % increase over DMSO-treated cells, concentration for half-maximal OCR increase, read-out: EC50-PC3-OCR-FBS-3min. The format is cell-based. The method, boiled down:
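Oxygen consumption read on Seahorse XFe96: three basal measurements, then compound injection and 10 cycles over 30 min. EC50 defined as concentration giving half-maximal OCR rise, using 3-min post-injection values as % above DMSO controls, six replicates per treatment, in PC-3 cells in glucose/pyruvate medium.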
For the compound `CC1(S(=O)(=O)Nc2cc(C(F)(F)F)ccc2C(=O)NC23CC(C#N)(C2)C3)CC1` [Example 64, N-(3-cyanobicyclo[1.1.1]pentan-1-yl)-2-((1-methylcyclopropane)-1-sulfonamido)-4-(trifluoromethyl)benzamide], the concentration for a half-maximal effect (EC50) (usually the midpoint of the concentration-response curve) was 5.22 µM.

On to `Cc1ccc(C(=O)NC23CC(C(F)(F)F)(C2)C3)c(NS(=O)(=O)c2ccncc2)c1` [Example 65, 4-methyl-2-(pyridine-4-sulfonamido)-N-(3-(trifluoromethyl)bicyclo[1.1.1]pentan-1-yl)benzamide], for which the half-maximal effective concentration (EC50) stood at 21.8 µM. The result for `CC1(S(=O)(=O)Nc2cc(C(F)(F)F)ccc2C(=O)NC23CC(C2)C3)CC1` [Example 66, N-(bicyclo[1.1.1]pentan-1-yl)-2-((1-methylcyclopropane)-1-sulfonamido)-4-(trifluoromethyl)benzamide] reads 8.35 µM; that for `CC1(S(=O)(=O)Nc2cc(C(F)(F)F)ccc2C(=O)NC23CCC(C#N)(CC2)CC3)CC1` [Example 67, N-(4-cyanobicyclo[2.2.2]octan-1-yl)-2-((1-methylcyclopropane)-1-sulfonamido)-4-(trifluoromethyl)benzamide], 5.92 µM. Turning to `CC(C)S(=O)(=O)Nc1ccc(C(F)(F)F)cc1C(=O)NC12CC(C#N)(C1)C2` [Example 68, N-(3-cyanobicyclo[1.1.1]pentan-1-yl)-2-((1-methylethyl)sulfonamido)-5-(trifluoromethyl)benzamide], the EC50 came to 5.13 µM.

As to `CC(C)S(=O)(=O)Nc1ccc(C(F)(F)F)cc1C(=O)NC12CC(C(F)(F)F)(C1)C2` [Example 69, 2-((1-methylethyl)sulfonamido)-5-(trifluoromethyl)-N-(3-(trifluoromethyl)bicyclo[1.1.1]pentan-1-yl)benzamide], the EC50 worked out at 0.518 µM. On to `CC(C)S(=O)(=O)Nc1ccc(C(F)(F)F)cc1C(=O)NC12CC(Cl)(C1)C2` [Example 70, N-(3-chlorobicyclo[1.1.1]pentan-1-yl)-2-((1-methylethyl)sulfonamido)-5-(trifluoromethyl)benzamide], for which the EC50 stood at 0.591 µM. `CC(C)S(=O)(=O)Nc1ccc(C(F)(F)F)cc1C(=O)NC12CC(C1)C2` [Example 71, N-(bicyclo[1.1.1]pentan-1-yl)-2-((1-methylethyl)sulfonamido)-5-(trifluoromethyl)benzamide]: the concentration giving a half-maximal response (EC50) worked out at 6.67 µM. For `CC(C)S(=O)(=O)Nc1ccc(C(F)(F)F)cc1C(=O)NC12CCC(C#N)(CC1)CC2` [Example 72, N-(4-cyanobicyclo[2.2.2]octan-1-yl)-2-((1-methylethyl)sulfonamido)-5-(trifluoromethyl)benzamide] the value was 4.01 µM; for `O=C(NC12CC(C(F)(F)F)(C1)C2)c1cc(C(F)(F)F)ccc1NS(=O)(=O)C1COC1` [Example 73, 2-(oxetane-3-sulfonamido)-5-(trifluoromethyl)-N-(3-(trifluoromethyl)bicyclo[1.1.1]pentan-1-yl)benzamide], 2.62 µM. The result for `O=C(NC12CC(Cl)(C1)C2)c1cc(C(F)(F)F)ccc1NS(=O)(=O)C1COC1` [Example 74, N-(3-chlorobicyclo[1.1.1]pentan-1-yl)-2-(oxetane-3-sulfonamido)-5-(trifluoromethyl)benzamide] reads 6.17 µM; that for `N#CC12CCC(NC(=O)c3cc(C(F)(F)F)ccc3NS(=O)(=O)C3COC3)(CC1)CC2` [Example 75, N-(4-cyanobicyclo[2.2.2]octan-1-yl)-2-(oxetane-3-sulfonamido)-5-(trifluoromethyl)benzamide], 25.9 µM.

For the compound `Cc1ncc(S(=O)(=O)Nc2cc(C(F)(F)F)ccc2C(=O)NC23CCC(C#N)(CC2)CC3)s1` [Example 76, N-(4-cyanobicyclo[2.2.2]octan-1-yl)-2-((2-methylthiazole)-5-sulfonamido)-4-(trifluoromethyl)benzamide], the EC50 came out at 9.19 µM.

As to `CC(C)(C)S(=O)(=O)Nc1cc(C#N)ccc1C(=O)NC12CCC(C#N)(CC1)CC2` [Example 77, 4-cyano-N-(4-cyanobicyclo[2.2.2]octan-1-yl)-2-((1,1-dimethylethyl)sulfonamido)benzamide], the concentration for a half-maximal effect (EC50) came to 8.65 µM. The result for `CC(C)S(=O)(=O)Nc1cc(C#N)ccc1C(=O)NC12CCC(C#N)(CC1)CC2` [Example 78, 4-cyano-N-(4-cyanobicyclo[2.2.2]octan-1-yl)-2-((1-methylethyl)sulfonamido)benzamide] reads 39.8 µM; that for `CS(=O)(=O)Nc1cc(F)ccc1C(=O)NC12CC(Cl)(C1)C2` [Example 79, N-(3-chlorobicyclo[1.1.1]pentan-1-yl)-4-fluoro-2-(methylsulfonamido)benzamide], 21.2 µM; that for `CS(=O)(=O)Nc1ccc(C(F)(F)F)cc1C(=O)NC12CC(Cl)(C1)C2` [Example 80, N-(3-chlorobicyclo[1.1.1]pentan-1-yl)-2-(methylsulfonamido)-5-(trifluoromethyl)benzamide], 2.54 µM.

Regarding `CS(=O)(=O)Nc1ccc(C(F)(F)F)cc1C(=O)NC12CCC(C(F)F)(CC1)CC2` [Example 81, N-(4-(difluoromethyl)bicyclo[2.2.2]octan-1-yl)-2-(methylsulfonamido)-5-(trifluoromethyl)benzamide], the EC50 turned out to be 2.39 µM. For `CS(=O)(=O)Nc1ccc(C(F)(F)F)cc1C(=O)NC12CCC(F)(CC1)CC2` [Example 82, N-(4-fluorobicyclo[2.2.2]octan-1-yl)-2-(methylsulfonamido)-5-(trifluoromethyl)benzamide] the value was 6.32 µM; for `CC(C)(C)S(=O)(=O)Nc1ccc(Cl)cc1C(=O)NC12CC(c3ccccc3)(C1)C2` [Example 83, 5-chloro-2-((1,1-dimethylethyl)sulfonamido)-N-(3-phenylbicyclo[1.1.1]pentan-1-yl)benzamide], 5.43 µM.

As for `CC(C)(C)S(=O)(=O)Nc1ccc(Cl)cc1C(=O)NC12CC(C(F)(F)F)(C1)C2` [Example 84, 5-chloro-2-((1,1-dimethylethyl)sulfonamido)-N-(3-(trifluoromethyl)bicyclo[1.1.1]pentan-1-yl)benzamide], the EC50 came out at 1.04 µM. As to `CC(C)(C)S(=O)(=O)Nc1ccc(Cl)cc1C(=O)NC12CC(C#N)(C1)C2` [Example 85, 5-chloro-N-(3-cyanobicyclo[1.1.1]pentan-1-yl)-2-((1,1-dimethylethyl)sulfonamido)benzamide], the 50% effective concentration (EC50) turned out to be 12.5 µM. For `CS(=O)(=O)c1ccc(S(=O)(=O)Nc2ccc(C(F)(F)F)cc2C(=O)NC23CC(C(F)(F)F)(C2)C3)cc1` [Example 86, 2-((4-(methylsulfonyl)phenyl)sulfonamido)-5-(trifluoromethyl)-N-(3-(trifluoromethyl)bicyclo[1.1.1]pentan-1-yl)benzamide] the value was 8.27 µM; for `CS(=O)(=O)c1ccc(S(=O)(=O)Nc2ccc(C(F)(F)F)cc2C(=O)NC23CC(c4ccccc4)(C2)C3)cc1` [Example 87, 2-((4-(methylsulfonyl)phenyl)sulfonamido)-N-(3-phenylbicyclo[1.1.1]pentan-1-yl)-5-(trifluoromethyl)benzamide], 3.28 µM. For the compound `COc1ccc(C(=O)NC23CC(C(F)(F)F)(C2)C3)c(NS(=O)(=O)c2ccc(S(C)(=O)=O)cc2)c1` [Example 88, 4-methoxy-2-((4-(methylsulfonyl)phenyl)sulfonamido)-N-(3-(trifluoromethyl)bicyclo[1.1.1]pentan-1-yl)benzamide], the concentration for a half-maximal effect (EC50) was determined as 26.3 µM.

Source of the values: patent US12049439B2 (OrsoBio, Inc., priority 2018, dated 2024).
